Test results taken from ChEMBL document CHEMBL1128832, “Substituted alkylpyridines as P3 ligands for the hydroxyethylpiperazine class of HIV-1 protease inhibitors: Improved pharmacokinetic profiles” (Bioorg Med Chem Lett, 1995).

Legend:
[1] = tested on: MT4; experiment: Antiviral activity in MT-4 human lymphoid cells infected with IIIB isolate by viral spread assay; type: functional; details: read-out: CIC95
[2] = Half life to reach the blood concentration was determined in dogs after oral administration (10 mg/kg) as a 0.05 M citric acid solution.; type: ADME, organism-based, Canis lupus familiaris; details: dog
[3] = Area under curve was determined in dogs after oral administration (10 mg/kg) as a 0.05 M citric acid solution.; type: ADME, organism-based, Canis lupus familiaris; details: dog, in vivo
[4] = Maximum plasma concentration in dogs after oral administration (10 mg/kg) as a 0.05 M citric acid solution.; type: ADME, organism-based, Canis lupus familiaris; design: dose 10 mg/kg, route oral; details: dog
[5] = Maximum time taken to reach maximum blood concentration was determined in dogs after oral administration (10 mg/kg) as a 0.05 M citric acid solution.; type: ADME, organism-based, Canis lupus familiaris; details: dog
[6] = target: Human immunodeficiency virus type 1 protease (Human immunodeficiency virus 1, UniProt Q72874); experiment: In vitro inhibitory activity against HIV-1 protease enzyme.
[7] = Half life to reach the blood concentration was determined in dogs after oral administration (8 mg/kg) as a 0.05 M citric acid solution.; type: ADME, organism-based, Canis lupus familiaris; details: dog
[8] = Area under curve was determined in dogs after oral administration (8 mg/kg) as a 0.05 M citric acid solution.; type: ADME, organism-based, Canis lupus familiaris; details: dog, in vivo
[9] = Maximum time taken to reach maximum blood concentration was determined in dogs after oral administration (8 mg/kg) as a 0.05 M citric acid solution.; type: ADME, organism-based, Canis lupus familiaris; details: dog
[10] = Maximum plasma concentration in dogs after oral administration (8 mg/kg) as a 0.05 M citric acid solution.; type: ADME, organism-based, Canis lupus familiaris; design: dose 8 mg/kg, route oral; details: dog

SMILES	half-life [2] [min]	AUC [3] [µM·h]	Cmax [4] [µM]	Tmax [5] [min]	half-life [7] [min]	AUC [8] [µM·h]	Tmax [9] [min]	Cmax [10] [µM]	IC95 [1] [nM]	IC50 [6] [nM]
CC(C)c1cc(CN2CCN(C[C@@H](O)[C@H](Cc3ccccc3)NC(=O)O[C@@H]3CCS(=O)(=O)[C@@H]3C(C)C)[C@H](C(=O)NC(C)(C)C)C2)cc(C(C)C)n1	–	–	–	–	–	–	–	–	50	–
CCC(C)c1cc(CN2CCN(C[C@@H](O)[C@H](Cc3ccccc3)NC(=O)O[C@@H]3CCS(=O)(=O)[C@@H]3C(C)C)[C@H](C(=O)NC(C)(C)C)C2)ccn1 (stereo not given in full)	–	–	–	–	–	–	–	–	25	1.2
CC(C)c1cc(CN2CCN(C[C@@H](O)[C@H](Cc3ccccc3)NC(=O)O[C@@H]3CCS(=O)(=O)[C@@H]3C(C)C)[C@H](C(=O)NC(C)(C)C)C2)ccn1	–	–	–	–	–	–	–	–	67	–
Cc1cc(CN2CCN(C[C@@H](O)[C@H](Cc3ccccc3)NC(=O)O[C@@H]3CCS(=O)(=O)[C@@H]3C(C)C)[C@H](C(=O)NC(C)(C)C)C2)cc(C)n1	–	–	–	–	28	4.5	40	3.6	50	–
CCc1cc(CN2CCN(C[C@@H](O)[C@H](Cc3ccccc3)NC(=O)O[C@@H]3CCS(=O)(=O)[C@@H]3C(C)C)[C@H](C(=O)NC(C)(C)C)C2)cc(CC)n1	36	2.9	3	25	–	–	–	–	42	–
CCCCc1cc(CN2CCN(C[C@@H](O)[C@H](Cc3ccccc3)NC(=O)O[C@@H]3CCS(=O)(=O)[C@@H]3C(C)C)[C@H](C(=O)NC(C)(C)C)C2)cc(CCCC)n1	–	–	–	–	–	–	–	–	25	–

More lines, main results first:

half-life [2] [min]	AUC [3] [µM·h]	Cmax [4] [µM]	Tmax [5] [min]	half-life [7] [min]	AUC [8] [µM·h]	Tmax [9] [min]	Cmax [10] [µM]	SMILES	IC95 [1] [nM]	IC50 [6] [nM]
121	7.4	8.6	10	–	–	–	–	Cc1cc(CN2CCN(C[C@@H](O)[C@H](Cc3ccccc3)NC(=O)O[C@@H]3CCS(=O)(=O)[C@@H]3C(C)C)[C@H](C(=O)NC(C)(C)C)C2)ccn1	75	–
91	5.4	4.1	20	–	–	–	–	CCc1cc(CN2CCN(C[C@@H](O)[C@H](Cc3ccccc3)NC(=O)O[C@@H]3CCS(=O)(=O)[C@@H]3C(C)C)[C@H](C(=O)NC(C)(C)C)C2)ccn1	81	–
–	–	–	–	21	1.5	25	2.3	CCCc1cc(CN2CCN(C[C@@H](O)[C@H](Cc3ccccc3)NC(=O)O[C@@H]3CCS(=O)(=O)[C@@H]3C(C)C)[C@H](C(=O)NC(C)(C)C)C2)ccn1	12	–
24	4.3	6.7	25	–	–	–	–	CC(C)[C@@H]1[C@H](OC(=O)N[C@@H](Cc2ccccc2)[C@H](O)CN2CCN(Cc3ccncc3)C[C@H]2C(=O)NC(C)(C)C)CCS1(=O)=O	200	–
